Assay results from patent US10568950B1, “Peptides, combination of peptides and scaffolds for use in immunotherapeutic treatment of various cancers” (Immatics Biotechnologies GmbH, priority 2015, dated 2020).

Experiments:
[1] = system: CD8+ T cells of healthy HLA-A*02+ donors; assay: In vitro immunogenicity: priming of CD8+ T cells with aAPCs loaded with HLA-A*02/peptide complexes and anti-CD28, multimer staining; format: cell-based, human; details: HLA-A*02 peptides of Table 12B
Description: CD8+ T cells were primed using artificial APCs coated with anti-CD28 mAb and HLA-A*02 in complex with SEQ ID NO: 2 peptide (FIG. 4A, left panel), SEQ ID NO: 9 peptide (FIG. 4B, left panel) and SEQ ID NO: 331 peptide (FIG. 4C, left panel), respectively. After three cycles of stimulation, the detection of peptide-reactive cells was performed by 2D multimer staining with A*02/SEQ ID NO: 2 (A), A*02/SEQ ID NO: 9 (B) or A*02/SEQ ID NO: 331 (C). Right panels (FIGS. 4A, 4B and 4C) show control staining of cells stimulated with irrelevant A*02/peptide complexes. Viable singlet cells were gated for CD8+ lymphocytes. Boolean gates helped excluding false-positive events detected with multimers specific for different peptides. Frequencies of specific multimer+ cells among CD8+ lymphocytes are indicated.
In order to obtain information regarding the immunogenicity of the TUMAPs of the present invention, the inventors performed investigations using an in vitro T-cell priming assay based on repeated stimulations of CD8+ T cells with artificial antigen presenting cells (aAPCs) loaded with peptide/MHC complexes and anti-CD28 antibody.
In order to perform in vitro stimulations by artificial antigen presenting cells loaded with peptide-MHC complex (pMHC) and anti-CD28 antibody, the inventors first isolated CD8+ T cells from fresh HLA-A*02 leukapheresis products via positive selection using CD8 microbeads (Miltenyi Biotec, Bergisch-Gladbach, Germany) of healthy donors obtained from the University clinics Mannheim, Germany, after informed consent.
PBMCs and isolated CD8+ lymphocytes were incubated in T-cell medium (TCM) until use consisting of RPMI-Glutamax (Invitrogen, Karlsruhe, Germany) supplemented with 10% heat inactivated human AB serum (PAN-Biotech, Aidenbach, Germany), 100 U/ml Penicillin/100 μg/ml Streptomycin (Cambrex, Cologne, Germany), 1 mM sodium pyruvate (CC Pro, Oberdorla, Germany), 20 μg/ml Gentamycin (Cambrex). 2.5 ng/ml IL-7 (PromoCell, Heidelberg, Germany) and 10 U/ml IL-2 (Novartis Pharma, Nurnberg, Germany) were also added to the TCM at this step.
Generation of pMHC/anti-CD28 coated beads, T-cell stimulations and readout was performed in a highly defined in vitro system using four different pMHC molecules per stimulation condition and 8 different pMHC molecules per readout condition.
The purified co-stimulatory mouse IgG2a anti human CD28 Ab 9.3 (Jung et al., 1987) was chemically biotinylated using Sulfo-N-hydroxysuccinimidobiotin as recommended by the manufacturer (Perbio, Bonn, Germany). Beads used were 5.6 μm diameter streptavidin coated polystyrene particles (Bangs Laboratories, Illinois, USA).
pMHC used for positive and negative control stimulations were A*0201/MLA-001 (peptide […] (SEQ ID NO. 418) from modified Melan-A/MART-1) and A*0201/DDX5-001 ([…] from DDX5, SEQ ID NO. 419), respectively.
800.000 beads/200 μl were coated in 96-well plates in the presence of 4×12.5 ng different biotin-pMHC, washed and 600 ng biotin anti-CD28 were added subsequently in a volume of 200 μl. Stimulations were initiated in 96-well plates by co-incubating 1×10^6 CD8+ T cells with 2×10^5 washed coated beads in 200 μl TCM supplemented with 5 ng/ml IL-12 (PromoCell) for 3 days at 37° C. Half of the medium was then exchanged by fresh TCM supplemented with 80 U/ml IL-2 and incubating was continued for 4 days at 37° C. This stimulation cycle was performed for a total of three times. For the pMHC multimer readout using 8 different pMHC molecules per condition, a two-dimensional combinatorial coding approach was used as previously described (Andersen et al., 2012) with minor modifications encompassing coupling to 5 different fluorochromes. Finally, multimeric analyses were performed by staining the cells with Live/dead near IR dye (Invitrogen, Karlsruhe, Germany), CD8-FITC antibody clone SKI (BD, Heidelberg, Germany) and fluorescent pMHC multimers. For analysis, a BD LSRII SORP cytometer equipped with appropriate lasers and filters was used. […]

[2] = target: HLA-A*02 (Homo sapiens, UniProt P04439, D140Y/D185E/D98H/E176V/E277Q/G131W/G231S/I119V/I121R/I166T/I218V/N151K/N90K/P208A/P217A/Q86G/Q94H/R138H/R169H); assay: MHC binding assay: UV-ligand exchange, beta2m ELISA (peptide exchange yield); details: binding to HLA-A*02, β2m ELISA
Text: Candidate peptides for T cell based therapies according to the present invention were further tested for their MHC binding capacity (affinity). The individual peptide-MHC complexes were produced by UV-ligand exchange, where a UV-sensitive peptide is cleaved upon UV-irradiation, and exchanged with the peptide of interest as analyzed. Only peptide candidates that can effectively bind and stabilize the peptide-receptive MHC molecules prevent dissociation of the MHC complexes. To determine the yield of the exchange reaction, an ELISA was performed based on the detection of the light chain (β2m) of stabilized MHC complexes. The assay was performed as generally described in Rodenko et al. (Rodenko et al., 2006).
96 well MAXISorp plates (NUNC) were coated over night with 2 ug/ml streptavidin in PBS at room temperature, washed 4× and blocked for 1 h at 37° C. in 2% BSA containing blocking buffer. […] Peptide-MHC monomers of the UV-exchange reaction were diluted 100 fold in blocking buffer. Samples were incubated for 1 h at 37° C., washed four times, incubated with 2 ug/ml HRP conjugated anti-βm for 1 h at 37° C., washed again and detected with TMB solution that is stopped with […]. Absorption was measured at 450 nm. Candidate peptides that show a high exchange yield (preferably higher than 50%, most preferred higher than 75%) are generally preferred for a generation and production of antibodies or fragments thereof, and/or T cell receptors or fragments thereof, as they show sufficient avidity to the MHC molecules and prevent dissociation of the MHC complexes.

Row | Substance | Wells positive [%] [1] | Peptide exchange (MHC class I binding score, peptide exchange yield) [2]
1 | 2 (ALYGKLLKL; listed as Homo sapiens) [compound 2] | ++++ (>= 70 % = ++++) | +++ (50%-75% = +++)
2 | 7 (AAAAKVPEV; listed as Homo sapiens) [compound 7] | + (<20% = +) | +++ (50%-75% = +++)
3 | 8 (KLGPFLLNA; listed as Homo sapiens) [compound 8] | +++ (50%-69% = +++) | +++ (50%-75% = +++)
4 | 9 (FLGDYVENL; listed as Homo sapiens) [compound 9] | + (<20% = +) | ++ (20%-49% = ++)
5 | 17 (ILHEHHIFL; listed as Homo sapiens) [compound 17] | + (<20% = +) | +++ (50%-75% = +++)
6 | 43 (LLWAGPVTA; listed as Homo sapiens) [compound 43] | ++++ (>= 70 % = ++++) | +++ (50%-75% = +++)
7 | 322 (ALVSGGVAQA; listed as Homo sapiens) [compound 322] | + (<20% = +) | +++ (50%-75% = +++)
8 | 331 (AIWKELISL; listed as Homo sapiens) [compound 331] | ++ (20%-49% = ++) | +++ (50%-75% = +++)
